Assay results: patent US5110828A (priority 1988, dated 1992)
Where a name gives a salt, the structure may show the parent alone. Read-outs that look alike come from different tables or passages of the source.

Columns and labels:
muscarinic receptors [1] = experiment: Radio ligand binding, displacement of muscarinic agonist 3H-Oxotremorine-M (3H-OXO-M); set-up: species or system rat (Hooded Lister); conditions: displacement of 2 nM 3H-OXO-M, rat cerebral cortex homogenate, 37° C., 30 min, 2 mM magnesium chloride
muscarinic receptors [2] = format: binding, rat (Hooded Lister); conditions: displacement of 0.27 nM 3H-QNB, rat cerebral cortex homogenate, 37° C., 30 min

Structure (SMILES)	IC50 (muscarinic receptors [1]) [µM]	IC50 (muscarinic receptors [2]) [µM]
CON=CC12CCCN(CC1)C2 (mixture of isomers) [E 1, (±) syn-1-Azabicyclo[3,2,1]oct-5-ylcarboxaldehyde, O-methyloxime hydrochloride salt]	0.073	5.2
CON=C(C)C1CN2CCC1CC2 (mixture of isomers) [E 3, (±) trans-3-Acetyl-1-azabicyclo[2.2.21octane-O-methyloxime hydrochloride salt]	0.069	2
C#CCON=C(C)C1CN2CCC1C2 (mixture of isomers) [E 15, (±)exo-3-Acetyl-1-azabicyclo2.2.1]heptane-trans-O-proparqyloxime hydrochloride salt]	0.219	3.9
CCC(=NOC)C1CN2CCC1C2 (mixture of isomers) [E 16, (±)exo-3-Propan-1-one-1-azabicyclo2.2.11heptane-trans-O-methyloxime hydrochloride salt]	0.204	3.4
CON=CC1CN2CCC1CC2 (racemic) [E 2, (±) 1-Azabicyclo[2.2.2]oct-3-ylcarboxaldehyde, O-methyloxime hydrochloride salt]	0.095	10
CON=C(C)C12CCCN(CC1)C2 (racemic) [E 6, (±) trans-5-Acetyl-1-azabicyclo[3.2.1]octane-O-methyloxime hydrochloride salt]	0.046	4.4
CON=C(C)C1CN2CCC1C2 (racemic) [E 13, (±)exo-3-Acetyl-1-azabicyclo[2.2.1]heptane-trans-O-methyloxime oxalate salt]	0.099	9
C#CCON=CC1CN2CCC1CC2 (racemic) [E 17, (±)1-Azabicyclo[2.2.21oct-3-ylcarboxaldehyde, O-proparqyloxime hydrochloride salt]	0.19	2.45
CON=C(C)C1CC2CCN(C2)C1 (racemic) [E 24, (±)exo-3-Acetyl-1-azabicyclo[3.2.1]octane-trans-O-methyloxime hydrochloride salt]	0.32	7.3
CON=C[C@@H]1CN2CC[C@@H]1C2 (relative stereo) [E 7, (±) exo-1-Azabicyclo[2.2.1]hept-3-ylcarboxaldehyde, O-methyloxime oxalate salt]	0.014	4.8
CCON=C[C@@H]1CN2CC[C@@H]1C2 (relative stereo) [E 8, (±) exo-1-Azabicyclo[2.2.1]hept-3-ylcarboxaldehyde, O-ethyloxime oxalate salt]	0.16	5.6
C#CCON=C[C@@H]1CN2CC[C@@H]1C2 (relative stereo) [E 9, (±) exo-1-Azabicyclo[2.2.11hept-3-ylcarboxaldehyde, O-proparqyloxime oxalate salt]	0.024	2.7
C=CCON=C[C@@H]1CN2CC[C@@H]1C2 (relative stereo) [E 22, (±)exo-1-Azabicyclo2.2.1]hept-3-ylcarboxaldehyde, O-allyloxime oxalate salt]	0.215	8.5
CON=C[C@H]1C[C@@H]2CCN(C1)C2 (relative stereo) [E 23, (±)exo-1-Azabicyclo[3.2.11oct-3-ylcarboxaldehyde, O-methyloxime hydrochloride salt]	0.24	5.57
CON=CC12CCN(CC1)C2 [E 19, syn-1-Azabicyclo[2.2.1]hept-4-ylcarboxaldehyde, O-methyloxime hydrochloride salt]	0.118	40
CON=C(C)C12CCN(CC1)C2 [E 20, 4-Acetyl-1-azabicyclo[2.2.1]heptane-O-methyloxime oxalate salt]	0.055	12.5
C#CCON=CC12CCN(CC1)C2 [E 21, syn-1-Azabicyclo[2.2.11hect-4-ylcarboxaldehyde, O-proparqyloxime oxalate salt]	0.352	21
